Columns and labels:
Assay type in all cases: functional, cell-based
BGC-823 = assay: Antiproliferative activity against human BGC823 cells after 48 hrs by MTT assay; conditions: BGC-823, 48 h
HepG2 = assay: Antiproliferative activity against human HepG2 cells after 48 hrs by MTT assay; conditions: HepG2, 48 h
PC-3 = assay: Antiproliferative activity against human PC3 cells after 48 hrs by MTT assay; conditions: PC-3, 48 h
MCF7 = assay: Antiproliferative activity against human MCF7 cells after 48 hrs by MTT assay; conditions: MCF7, 48 h
DU-145 = assay: Antiproliferative activity against human DU145 cells after 48 hrs by MTT assay; conditions: DU-145, 48 h

| SMILES | IC50 (BGC-823) [µM] | IC50 (HepG2) [µM] | IC50 (PC-3) [µM] | IC50 (MCF7) [µM] | IC50 (DU-145) [µM] |
| --- | --- | --- | --- | --- | --- |
| COC(C)(C)CCC[C@@](C)(O)[C@H]1CC[C@]2(C)[C@@H]1[C@H](OC(=O)c1cc([N+](=O)[O-])cc([N+](=O)[O-])c1)C[C@@H]1[C@@]3(C)CC[C@H](OC(=O)c4cc([N+](=O)[O-])cc([N+](=O)[O-])c4)C(C)(C)[C@@H]3CC[C@]12C | > 50 | > 50 | > 50 | 38.2 | 44.6 |
| COC(C)(C)CCC[C@@](C)(O)[C@H]1CC[C@]2(C)[C@@H]1[C@H](OC(=O)c1ccc(I)cc1)C[C@@H]1[C@@]3(C)CC[C@H](O)C(C)(C)[C@@H]3CC[C@]12C | > 50 | > 50 | > 50 | > 50 | > 50 |
| COC(C)(C)CCC[C@@](C)(O)[C@H]1CC[C@]2(C)[C@@H]1[C@H](O)C[C@@H]1[C@@]3(C)CC[C@H](OC(=O)c4cccc(C)c4)C(C)(C)[C@@H]3CC[C@]12C | > 50 | 38.4 | > 50 | > 50 | 46.2 |
| COC(C)(C)CCC[C@@](C)(O)[C@H]1CC[C@]2(C)[C@@H]1[C@H](OC(=O)c1ccc(F)cc1F)C[C@@H]1[C@@]3(C)CC[C@H](OC(=O)c4ccc(F)cc4F)C(C)(C)[C@@H]3CC[C@]12C | 37.7 | > 50 | 43.2 | > 50 | > 50 |
| COC(C)(C)CCC[C@@](C)(O)[C@H]1CC[C@]2(C)[C@@H]1[C@H](OC(=O)/C=C/c1ccc(Cl)cc1)C[C@@H]1[C@@]3(C)CC[C@H](OC(=O)/C=C/c4ccc(Cl)cc4)C(C)(C)[C@@H]3CC[C@]12C | > 50 | > 50 | > 50 | > 50 | > 50 |
| COC(C)(C)CCC[C@@](C)(O)[C@H]1CC[C@]2(C)[C@@H]1[C@H](O)C[C@@H]1[C@@]3(C)CC[C@H](OC(=O)c4cc(Br)cc(Br)c4)C(C)(C)[C@@H]3CC[C@]12C | 36.1 | 43.6 | 38.4 | 41.7 | 22.6 |
| COC(C)(C)CCC[C@@](C)(O)[C@H]1CC[C@]2(C)[C@@H]1[C@H](O)C[C@@H]1[C@@]3(C)CC[C@H](OC(=O)c4cc([N+](=O)[O-])cc([N+](=O)[O-])c4)C(C)(C)[C@@H]3CC[C@]12C | 9.5 | 14.5 | 7.5 | 11.7 | 13.4 |
| COC(C)(C)CCC[C@@](C)(O)[C@H]1CC[C@]2(C)[C@@H]1[C@H](O)C[C@@H]1[C@@]3(C)CC[C@H](OC(=O)c4ccc(F)cc4)C(C)(C)[C@@H]3CC[C@]12C | 12.7 | 8.5 | 15 | 9.4 | 13.8 |
| COC(C)(C)CCC[C@@](C)(O)[C@H]1CC[C@]2(C)[C@@H]1[C@H](O)C[C@@H]1[C@@]3(C)CC[C@H](OC(=O)/C=C/c4ccc(F)cc4)C(C)(C)[C@@H]3CC[C@]12C | 18 | 26.9 | 17.6 | 23.7 | 20.6 |
| COC(C)(C)CCC[C@@](C)(O)[C@H]1CC[C@]2(C)[C@@H]1[C@H](OC(=O)c1cc(C)cc(C)c1)C[C@@H]1[C@@]3(C)CC[C@H](OC(=O)c4cc(C)cc(C)c4)C(C)(C)[C@@H]3CC[C@]12C | > 50 | > 50 | > 50 | > 50 | > 50 |
| COC(C)(C)CCC[C@@](C)(O)[C@H]1CC[C@]2(C)[C@@H]1[C@H](OC(=O)c1ccc([N+](=O)[O-])cc1)C[C@@H]1[C@@]3(C)CC[C@H](O)C(C)(C)[C@@H]3CC[C@]12C | > 50 | > 50 | > 50 | > 50 | > 50 |
| COC(C)(C)CCC[C@@](C)(O)[C@H]1CC[C@]2(C)[C@@H]1[C@H](O)C[C@@H]1[C@@]3(C)CC[C@H](OC(=O)c4cc(F)ccc4Br)C(C)(C)[C@@H]3CC[C@]12C | 34.4 | 18.9 | 39.9 | 15.6 | 28.7 |
| COC(C)(C)CCC[C@@](C)(O)[C@H]1CC[C@]2(C)[C@@H]1[C@H](OC(=O)c1ccc(Br)cc1)C[C@@H]1[C@@]3(C)CC[C@H](OC(=O)c4ccc(Br)cc4)C(C)(C)[C@@H]3CC[C@]12C | > 50 | > 50 | > 50 | > 50 | > 50 |
| COC(C)(C)CCC[C@@](C)(O)[C@H]1CC[C@]2(C)[C@@H]1[C@H](O)C[C@@H]1[C@@]3(C)CC[C@H](OC(=O)c4ccc(Cl)cc4)C(C)(C)[C@@H]3CC[C@]12C | 26.4 | 25.7 | 28.3 | 19 | 20.5 |
| COC(C)(C)CCC[C@@](C)(O)[C@H]1CC[C@]2(C)[C@@H]1[C@H](O)C[C@@H]1[C@@]3(C)CC[C@H](OC(=O)c4ccccc4Cl)C(C)(C)[C@@H]3CC[C@]12C | 28.1 | 19.2 | 22 | 15.6 | 18.5 |
| COC(C)(C)CCC[C@@](C)(O)[C@H]1CC[C@]2(C)[C@@H]1[C@H](OC(=O)/C=C/c1ccc(F)cc1)C[C@@H]1[C@@]3(C)CC[C@H](O)C(C)(C)[C@@H]3CC[C@]12C | > 50 | > 50 | > 50 | > 50 | > 50 |
| COC(C)(C)CCC[C@@](C)(O)[C@H]1CC[C@]2(C)[C@@H]1[C@H](O)C[C@@H]1[C@@]3(C)CC[C@H](OC(=O)c4ccccc4[N+](=O)[O-])C(C)(C)[C@@H]3CC[C@]12C | 7.9 | 12 | 14.8 | 8.6 | 11.5 |
| COC(C)(C)CCC[C@@](C)(O)[C@H]1CC[C@]2(C)[C@@H]1[C@H](O)C[C@@H]1[C@@]3(C)CC[C@H](OC(=O)c4ccccc4C)C(C)(C)[C@@H]3CC[C@]12C | > 50 | > 50 | > 50 | 37.6 | 44.3 |
| COC(C)(C)CCC[C@@](C)(O)[C@H]1CC[C@]2(C)[C@@H]1[C@H](OC(=O)c1ccccc1C)C[C@@H]1[C@@]3(C)CC[C@H](O)C(C)(C)[C@@H]3CC[C@]12C | > 50 | > 50 | > 50 | > 50 | > 50 |
| COC(C)(C)CCC[C@@](C)(O)[C@H]1CC[C@]2(C)[C@@H]1[C@H](OC(=O)c1ccccc1)C[C@@H]1[C@@]3(C)CC[C@H](OC(=O)c4ccccc4)C(C)(C)[C@@H]3CC[C@]12C | > 50 | > 50 | > 50 | > 50 | > 50 |
| COC(C)(C)CCC[C@@](C)(O)[C@H]1CC[C@]2(C)[C@@H]1[C@H](OC(=O)c1ccc(Cl)cc1)C[C@@H]1[C@@]3(C)CC[C@H](OC(=O)c4ccc(Cl)cc4)C(C)(C)[C@@H]3CC[C@]12C | > 50 | 41.5 | > 50 | 36.4 | > 50 |
| COC(C)(C)CCC[C@@](C)(O)[C@H]1CC[C@]2(C)[C@@H]1[C@H](O)C[C@@H]1[C@@]3(C)CC[C@H](OC(=O)c4ccc([N+](=O)[O-])cc4)C(C)(C)[C@@H]3CC[C@]12C | 17.4 | 20.6 | 16.7 | 25.3 | 19.2 |
| COC(C)(C)CCC[C@@](C)(O)[C@H]1CC[C@]2(C)[C@@H]1[C@H](OC(=O)c1ccccc1I)C[C@@H]1[C@@]3(C)CC[C@H](OC(=O)c4ccccc4I)C(C)(C)[C@@H]3CC[C@]12C | > 50 | > 50 | > 50 | > 50 | > 50 |
| COC(C)(C)CCC[C@@](C)(O)[C@H]1CC[C@]2(C)[C@@H]1[C@H](OC(=O)c1ccccc1[N+](=O)[O-])C[C@@H]1[C@@]3(C)CC[C@H](OC(=O)c4ccccc4[N+](=O)[O-])C(C)(C)[C@@H]3CC[C@]12C | 48.6 | > 50 | > 50 | 37.2 | 29.7 |

— ChEMBL document CHEMBL4371049, “Semi-synthesis and anti-tumor activity of novel 25-OCH3-PPD derivatives incorporating aromatic moiety” (Bioorg Med Chem Lett, 2019)
